Results from US9247759B2, “Identification of human T2R receptors that respond to bitter compounds that elicit the bitter taste in compositions, and the use thereof in assays to identify compounds that inhibit (block) bitter taste in compositions and use thereof” (SENOMYX, INC., priority 2007, dated 2016).
Read-outs that look alike come from different tables or passages of the source.

Target: hT2R8 (Homo sapiens (Human), UniProt Q9NYW2)
Test: hT2R8 antagonist high-throughput FLIPR assay, stable cell line with G16g44, agonist andrographolide
Type: cell-based
Summary of the method: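 Antagonist screen: compounds co-applied with agonist andrographolide at 200 μM, a dose giving 70–80% of maximal hT2R8 activation. Fluorescence measured by FLIPR in a stable HEK293 line expressing both hT2R8 and the promiscuous G16g44 protein.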

[1] = table after Example 12-37, read-out: hT2R8 IC50
[2] = read-out: IC50 on hT2R8 bitter receptor
[3] = table after Example 10-97, read-out: hT2R8 IC50
[4] = unit uM, read-out: IC50 on hT2R08 bitter receptor

Chain of hT2R8 (Q9NYW2 whole entry): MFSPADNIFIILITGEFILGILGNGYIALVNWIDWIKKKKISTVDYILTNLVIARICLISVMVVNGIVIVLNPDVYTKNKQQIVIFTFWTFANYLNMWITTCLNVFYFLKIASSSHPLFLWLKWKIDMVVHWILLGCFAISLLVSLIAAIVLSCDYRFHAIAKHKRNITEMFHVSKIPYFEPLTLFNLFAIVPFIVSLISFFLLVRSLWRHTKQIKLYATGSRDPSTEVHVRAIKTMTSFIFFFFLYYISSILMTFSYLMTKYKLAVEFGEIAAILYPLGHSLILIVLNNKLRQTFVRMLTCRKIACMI

| IC50 [2] [µM] | IC50 [3] [µM] | SMILES | also measured |
| --- | --- | --- | --- |
|  |  | Cc1noc(C)c1Cn1cc(N2C(=O)N(Cc3ccncc3)C(C)(C)C2=O)cn1 [Example 12-52, 3-(1-((3,5-dimethylisoxazol-4-yl)methyl)-1H-pyrazol-4-yl)-5,5-dimethyl-1-(pyridin-4-ylmethyl)imidazolidine-2,4-dione] | IC50 [1]: 0.19 µM |
|  |  | Cc1noc(C)c1Cn1cc(NC(=O)c2cccn2C)cn1 [Example 4-49, N-(1-((3,5-dimethylisoxazol-4-yl)methyl)-1H-pyrazol-4-yl)-1-methyl-1H-pyrrole-2-carboxamide] | IC50 (Table A, read-out: hT2R8 IC50): 3.4 µM |
|  |  | Cc1noc(C)c1Cn1cc(N2C(=O)N(Cc3ccccc3C(=O)O)C(C)(C)C2=O)cn1 [Example 12-91, 2-((3-(1-((3,5-dimethylisoxazol-4-yl)methyl)-1H-pyrazol-4-yl)-5,5-dimethyl-2,4-dioxoimidazolidin-1-yl)methyl)benzoic acid] | IC50 [1]: 4.23 µM |
|  |  | Cc1noc(C)c1Cn1cc(N2C(=O)N(Cc3c(F)cccc3F)C(C)(C)C2=O)cn1 [Example 12-44, 1-(2,6-difluorobenzyl)-3-(1-((3,5-dimethylisoxazol-4-yl)methyl)-1H-pyrazol-4-yl)-5,5-dimethylimidazolidine-2,4-dione] | IC50 [1]: 0.1 µM |
|  |  | Cc1noc(C)c1Cn1cc(NS(=O)(=O)c2ccccc2F)cn1 [Example 4-100, N-(1-((3,5-dimethylisoxazol-4-yl)methyl)-1H-pyrazol-4-yl)-2-fluorobenzenesulfonamide] | IC50 (Table A, read-out: hT2R8 IC50): 8.51 µM |
| 0.8 | 0.81 | Cc1noc(C)c1Cn1cc(N2C(=O)N(C)C(C)(C)C2=O)cn1 [Example 10-52, 3-(1-((3,5-dimethylisoxazol-4-yl)methyl)-1H-pyrazol-4-yl)-1,5,5-trimethylimidazolidine-2,4-dione] |  |
| 0.59 |  | COCCN1C(=O)N(c2cnn(Cc3c(C)noc3C)c2)C(=O)C1(C)C [Example 12-28, 3-(1-((3,5-dimethylisoxazol-4-yl)methyl)-1H-pyrazol-4-yl)-1-(2-methoxyethyl)-5,5-dimethylimidazolidine-2,4-dione] |  |
|  |  | Cc1noc(C)c1Cn1cc(N2C(=O)N(CCc3cc(F)cc(F)c3)C(C)(C)C2=O)cn1 [Example 12-70, 1-(3,5-difluorophenethyl)-3-(1-((3,5-dimethylisoxazol-4-yl)methyl)-1H-pyrazol-4-yl)-5,5-dimethylimidazolidine-2,4-dione] | IC50 [1]: 0.4 µM |
| 0.28 | 0.276 | Cc1noc(C)c1Cn1cc(N2C(=O)CN(CC3CCCCC3)C2=O)cn1 [Example 10-74, 1-(cyclohexylmethyl)-3-(1-((3,5-dimethylisoxazol-4-yl)methyl)-1H-pyrazol-4-yl)imidazolidine-2,4-dione] |  |
| 0.02 |  | COc1ccc(CN2C(=O)N(c3cnn(Cc4c(C)noc4C)c3)C(=O)C23CC3)cc1O [Example 12-12, 6-(1-((3,5-dimethylisoxazol-4-yl)methyl)-1H-pyrazol-4-yl)-4-(3-hydroxy-4-methoxybenzyl)-4,6-diazaspiro[2.4]heptane-5,7-dione] |  |
| 0.15 |  | Cc1noc(C)c1Cn1cc(N2C(=O)N(C(C)c3ccccc3)C(C)(C)C2=O)cn1 (stereo not drawn) [Example 12-24, 3-(1-((3,5-dimethylisoxazol-4-yl)methyl)-1H-pyrazol-4-yl)-5,5-dimethyl-1-(1-phenylethyl)imidazolidine-2,4-dione] |  |
| 0.23 |  | Cc1cc(CN2C(=O)N(c3cnn(Cc4c(C)noc4C)c3)C(=O)C2(C)C)n(C)n1 [Example 12-26, 1-((1,3-dimethyl-1H-pyrazol-5-yl)methyl)-3-(1-((3,5-dimethylisoxazol-4-yl)methyl)-1H-pyrazol-4-yl)-5,5-dimethylimidazolidine-2,4-dione] |  |
|  |  | Cc1cccc(CN2C(=O)N(c3cnn(Cc4c(C)noc4C)c3)C(=O)C2(C)C)c1F [Example 12-82, 3-(1-((3,5-dimethylisoxazol-4-yl)methyl)-1H-pyrazol-4-yl)-1-(2-fluoro-3-methylbenzyl)-5,5-dimethylimidazolidine-2,4-dione] | IC50 [1]: 0.81 µM |
| 0.26 | 0.137 | COc1ccc(CCN2CC(=O)N(c3cnn(Cc4c(C)noc4C)c3)C2=O)cc1OC [Example 10-87, 1-(3,4-dimethoxyphenethyl)-3-(1-((3,5-dimethylisoxazol-4-yl)methyl)-1H-pyrazol-4-yl)imidazolidine-2,4-dione] |  |
| 0.01 | 0.012 | Cc1noc(C)c1Cn1cc(-n2c(=O)n(C)n(CCc3ccc(F)cc3)c2=O)cn1 [Example 10-66, 4-(1-((3,5-dimethylisoxazol-4-yl)methyl)-1H-pyrazol-4-yl)-1-(4-fluorophenethyl)-2-methyl-1,2,4-triazolidine-3,5-dione] |  |
|  | 0.163 | Cc1noc(C)c1Cn1cc(N2C(=O)CN(Cc3ccccc3N)C2=O)cn1 [Example 10-34, 1-(2-aminobenzyl)-3-(1-((3,5-dimethylisoxazol-4-yl)methyl)-1H-pyrazol-4-yl)imidazolidine-2,4-dione] | IC50 [4]: 0.02 µM |
| 0.04 | 0.479 | Cc1noc(C)c1CN1CC(=O)N(c2cnn(Cc3c(C)noc3C)c2)C1=O [Example 10-55, 1-((3,5-dimethylisoxazol-4-yl)methyl)-3-(1-((3,5-dimethylisoxazol-4-yl)methyl)-1H-pyrazol-4-yl)imidazolidine-2,4-dione] |  |
| 0.01 | 0.027 | Cc1noc(C)c1Cn1cc(N2C(=O)CN(CCc3ccc(F)cc3)C2=O)cn1 [Example 10-84, 3-(1-((3,5-dimethylisoxazol-4-yl)methyl)-1H-pyrazol-4-yl)-1-(4-fluorophenethyl)imidazolidine-2,4-dione] |  |
|  | 0.069 | Cc1noc(C)c1Cn1cc(N2C(=O)CN(Cc3ccccc3O)C2=O)cn1 [Example 10-11, 3-(1-((3,5-dimethylisoxazol-4-yl)methyl)-1H-pyrazol-4-yl)-1-(2-hydroxybenzyl)imidazolidine-2,4-dione] | IC50 [4]: 0.07 µM |
|  |  | Cc1noc(C)c1Cn1cc(N2C(=O)N(Cc3cccc(OCCN(C)C)c3)C(C)(C)C2=O)cn1 [Example 12-87, 1-(3-(2-(dimethylamino)ethoxy)benzyl)-3-(1-((3,5-dimethylisoxazol-4-yl)methyl)-1H-pyrazol-4-yl)-5,5-dimethylimidazolidine-2,4-dione] | IC50 [1]: 2.08 µM |
| 0.76 | 0.766 | Cc1noc(C)c1Cn1cc(N2C(=O)NC(COCc3ccccc3)C2=O)cn1 (stereo not drawn) [Example 10-47, 5-(benzyloxymethyl)-3-(1-((3,5-dimethylisoxazol-4-yl)methyl)-1H-pyrazol-4-yl)imidazolidine-2,4-dione] |  |
|  |  | COc1cc(C(=O)Nc2cnn(Cc3c(C)noc3C)c2)ccc1C [Example 4-74, N-(1-((3,5-dimethylisoxazol-4-yl)methyl)-1H-pyrazol-4-yl)-3-methoxy-4-methylbenzamide] | IC50 (Table A, read-out: hT2R8 IC50): 2.2 µM |
| 0.17 |  | COc1ccc(OC)c(C(=O)Nc2cnn(Cc3c(C)noc3C)c2)c1 [Example 4-9, N-(1-((3,5-dimethylisoxazol-4-yl)methyl)-1H-pyrazol-4-yl)-2,5-dimethoxybenzamide] |  |
|  |  | Cc1cccc(C)c1CN1C(=O)N(c2cnn(Cc3c(C)noc3C)c2)C(=O)C1(C)C [Example 12-85, 1-(2,6-dimethylbenzyl)-3-(1-((3,5-dimethylisoxazol-4-yl)methyl)-1H-pyrazol-4-yl)-5,5-dimethylimidazolidine-2,4-dione] | IC50 [1]: 1.58 µM |
